# pEC50: −log10 of the molar value.
# Molecular target: T1, human FXR (Homo sapiens, UniProt Q96RI1)
# T1 sequence (Q96RI1 262-486 limits assumed): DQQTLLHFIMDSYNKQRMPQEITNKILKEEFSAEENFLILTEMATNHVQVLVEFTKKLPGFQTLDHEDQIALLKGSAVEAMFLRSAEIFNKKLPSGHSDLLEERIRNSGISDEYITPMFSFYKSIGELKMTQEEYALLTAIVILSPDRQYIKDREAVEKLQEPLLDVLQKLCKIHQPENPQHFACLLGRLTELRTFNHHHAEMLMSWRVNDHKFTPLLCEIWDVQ
# Test: transient human FXR/Gal4-luciferase reporter assay (HLE GAL-FXR)
# Conditions: FXR EC50 (nM), Gal4-hFXR fusion reporter, HEK293 cells; Table 1
row,Compound,EC50
1,COc1ccc(COc2cc(C(=O)O)nc3ccc(N4CC5C(/C=C/c6c(-c7c(Cl)cncc7Cl)noc6C6CC6)C5C4)cc23)cc1 (stereo not drawn) [Example 129],240 nM
2,O=C(O)c1cc(OC2CCC2)c2cc(N3CC4C(/C=C/c5c(-c6c(Cl)cncc6Cl)noc5C5CC5)C4C3)ccc2n1 (stereo not drawn) [Example 136],20 nM
3,O=C(O)c1cc(OC2COC2)cc(-c2nc(N3CC4C(/C=C/c5c(-c6c(Cl)cncc6Cl)noc5C5CC5)C4C3)no2)c1 (stereo not drawn) [Example 137],932 nM
4,COc1cc(C(=O)O)nc2sc(N3CC4C(/C=C/c5c(-c6ccccc6C(F)(F)F)noc5C5CC5)C4C3)nc12 (stereo not drawn) [Example 139],163 nM
5,O=C(O)c1ccc(N2CC3C(/C=C/c4c(-c5c(Cl)cccc5Cl)noc4C4CC4)C3C2)nc1 (stereo not drawn) [Example 144],424 nM
6,O=C(O)c1cc(C(F)(F)F)c2cc(N3CC[C@@H](/C=C/c4c(-c5ccccc5C(F)(F)F)noc4C4CC4)C3)ccc2n1 [Example 145],419 nM
7,COc1cc(C(=O)O)nc2sc(N3CC(/C=C/c4c(-c5ccccc5C(F)(F)F)noc4C4CC4)C3)nc12 [Example 153],473 nM
8,COc1cc(C(=O)O)cc(-c2nc(N3CC4C(/C=C/c5c(-c6cccnc6C(F)(F)F)noc5C5CC5)C4C3)no2)c1 (stereo not drawn) [Example 155],784 nM
9,O=C(O)c1cc(OC2CCC2)c2cc(N3CC(/C=C/c4c(-c5c(Cl)ccnc5Cl)noc4C4CC4)C3)ccc2n1 [Example 159],39 nM
10,O=C(O)c1cc(OC2COC2)c2cc(N3CC(/C=C/c4c(-c5c(Cl)cncc5Cl)noc4C4CC4)C3)ccc2n1 [Example 160],65 nM
11,O=C(O)c1cnc2cc(N3CC4C(/C=C/c5c(-c6c(Cl)cncc6Cl)noc5C5CC5)C4C3)ccc2n1 (stereo not drawn) [Example 161],192 nM
12,O=C(O)c1cc(C(F)(F)F)c2cc(N3CC(/C=C/c4c(-c5c(Cl)cncc5Cl)noc4C4CC4)C3)ccc2n1 [Example 162],150 nM
13,COc1cc(-c2nc(N3CC4C(/C=C/c5c(-c6c(Cl)cncc6Cl)noc5C5CC5)C4C3)no2)cc(C(=O)O)n1 (stereo not drawn) [Example 164],297 nM
14,COc1cc(C(=O)O)nc2ccc(N3CC(/C=C/c4c(-c5c(Cl)cncc5Cl)noc4C4CC4)C3)cc12 [Example 166],29 nM
15,O=C(O)c1cnc2cc(N3CC(/C=C/c4c(-c5c(Cl)cncc5Cl)noc4C4CC4)C3)ccc2n1 [Example 167],308 nM
16,COc1c(C(=O)O)cccc1-c1nc(N2CC3C(/C=C/c4c(-c5c(Cl)cncc5Cl)noc4C4CC4)C3C2)no1 (stereo not drawn) [Example 168],1100 nM
17,COc1cc(C(=O)O)nc2ccc(N3CC(/C=C/c4c(-c5cccnc5C(F)(F)F)noc4C4CC4)C3)cc12 [Example 169],223 nM
18,COc1cc(C(=O)O)nc2ccc(N3CC(/C=C/c4c(-c5ccccc5C(F)(F)F)noc4C4CC4)C3)nc12 [Example 173],375 nM
19,Cn1cc(C(=O)O)c(=O)c2ccc(N3CC4C(/C=C/c5c(-c6c(Cl)cncc6Cl)noc5C5CC5)C4C3)cc21 (stereo not drawn) [Example 180],276 nM
20,Cn1cc(C(=O)O)c(=O)c2ccc(N3CC(/C=C/c4c(-c5ccccc5C(F)(F)F)noc4C4CC4)C3)cc21 [Example 181],400 nM
21,O=C(O)c1cc(O[C@@H]2CCOC2)c2cc(N3CC(/C=C/c4c(-c5cccnc5C(F)(F)F)noc4C4CC4)C3)ccc2n1 [Example 188],1690 nM
22,O=C(O)c1cc(O[C@H]2CCOC2)c2cc(N3CC(/C=C/c4c(-c5cccnc5C(F)(F)F)noc4C4CC4)C3)ccc2n1 [Example 189],650 nM

# Second part, the compound after the results:
row,EC50,Compound
1,50 nM,O=C(O)c1cc(OC2CCC2)c2cc(N3CC4C(/C=C/c5c(-c6ccccc6C(F)(F)F)noc5C5CC5)C4C3)ccc2n1 (stereo not drawn) [Example 130]
2,16 nM,COc1cc(C(=O)O)nc2ccc(N3CC4C(/C=C/c5c(-c6ccccc6C(F)(F)F)noc5C5CC5)C4C3)cc12 (stereo not drawn) [Example 132]
3,15 nM,O=C(O)c1cc(OC2COC2)c2cc(N3CC4C(/C=C/c5c(-c6ccccc6C(F)(F)F)noc5C5CC5)C4C3)ccc2n1 (stereo not drawn) [Example 134]
4,416 nM,COc1nc(C(=O)O)cc2ccc(N3CC4C(/C=C/c5c(-c6ccccc6C(F)(F)F)noc5C5CC5)C4C3)cc12 (stereo not drawn) [Example 135]
5,2470 nM,O=C(O)c1cnc2ccc(N3CC4C(/C=C/c5c(-c6ccccc6C(F)(F)F)noc5C5CC5)C4C3)cc2n1 (stereo not drawn) [Example 138]
6,142 nM,O=C(O)c1cnc2cc(N3CC4C(/C=C/c5c(-c6ccccc6C(F)(F)F)noc5C5CC5)C4C3)ccc2n1 (stereo not drawn) [Example 140]
7,98 nM,COc1cc(C(=O)O)nc2ccc(N3CC4C(/C=C/c5c(-c6cccnc6C(F)(F)F)noc5C5CC5)C4C3)cc12 (stereo not drawn) [Example 141]
8,54 nM,O=C(O)c1cc(OC2CCC2)c2cc(N3CC4C(/C=C/c5c(-c6cccnc6C(F)(F)F)noc5C5CC5)C4C3)ccc2n1 (stereo not drawn) [Example 142]
9,88 nM,O=C(O)c1cc(OC2COC2)c2cc(N3CC4C(/C=C/c5c(-c6cccnc6C(F)(F)F)noc5C5CC5)C4C3)ccc2n1 (stereo not drawn) [Example 143]
10,22 nM,O=C(O)c1cc(C(F)(F)F)c2cc(N3CC[C@H](/C=C/c4c(-c5ccccc5C(F)(F)F)noc4C4CC4)C3)ccc2n1 [Example 146]
11,139 nM,O=C(O)c1cc(OC2CCC2)c2cc(N3CC[C@@H](/C=C/c4c(-c5ccccc5C(F)(F)F)noc4C4CC4)C3)ccc2n1 [Example 147]
12,2 nM,O=C(O)c1cc(OC2CCC2)c2cc(N3CC[C@H](/C=C/c4c(-c5ccccc5C(F)(F)F)noc4C4CC4)C3)ccc2n1 [Example 148]
13,164 nM,CC(C)Oc1cc(C(=O)O)nc2ccc(N3CC(/C=C/c4c(-c5ccccc5C(F)(F)F)noc4C4CC4)C3)cc12 [Example 149]
14,58 nM,O=C(O)c1cc(OC2CCC2)c2cc(N3CC(/C=C/c4c(-c5ccccc5C(F)(F)F)noc4C4CC4)C3)ccc2n1 [Example 150]
15,96 nM,O=C(O)c1cc(OC2COC2)c2cc(N3CC(/C=C/c4c(-c5ccccc5C(F)(F)F)noc4C4CC4)C3)ccc2n1 [Example 151]
16,228 nM,O=C(O)c1cc(OC2CC(F)(F)C2)c2cc(N3CC(/C=C/c4c(-c5ccccc5C(F)(F)F)noc4C4CC4)C3)ccc2n1 [Example 152]
17,63 nM,COc1cc(C(=O)O)nc2ccc(N3CC(/C=C/c4c(-c5ccccc5C(F)(F)F)noc4C4CC4)C3)cc12 [Example 154]
18,43 nM,CCOc1cc(C(=O)O)nc2ccc(N3CC4C(/C=C/c5c(-c6cccnc6C(F)(F)F)noc5C5CC5)C4C3)cc12 (stereo not drawn) [Example 156]
19,165 nM,O=C(O)c1cc(O[C@@H]2CCOC2)c2cc(N3CC4C(/C=C/c5c(-c6cccnc6C(F)(F)F)noc5C5CC5)C4C3)ccc2n1 (stereo partly drawn) [Example 157]
20,555 nM,CCOc1cc(N2CC3C(/C=C/c4c(-c5ccccc5C(F)(F)F)noc4C4CC4)C3C2)cnc1C(N)=O (stereo not drawn) [Example 158]
21,424 nM,CCOc1cc(N2CC3C(/C=C/c4c(-c5ccccc5C(F)(F)F)noc4C4CC4)C3C2)cnc1C(=O)O (stereo not drawn) [Example 163]
22,50 nM,O=C(O)c1cc(OC2CCC2)c2cc(N3CC(/C=C/c4c(-c5cccnc5C(F)(F)F)noc4C4CC4)C3)ccc2n1 [Example 170]
23,37 nM,O=C(O)c1cc(OC2CC2)c2cc(N3CC(/C=C/c4c(-c5cccnc5C(F)(F)F)noc4C4CC4)C3)ccc2n1 [Example 178]
24,72 nM,O=C(O)c1cc(OCC(F)F)c2cc(N3CC(/C=C/c4c(-c5ccccc5C(F)(F)F)noc4C4CC4)C3)ccc2n1 [Example 182]
25,11 nM,O=C(O)c1cc(O[C@H]2C[C@@H](F)C2)c2cc(N3CC4C(/C=C/c5c(-c6ccccc6C(F)(F)F)noc5C5CC5)C4C3)ccc2n1 (stereo partly drawn) [Example 185]
26,228 nM,COCc1cc(C(=O)O)nc2ccc(N3CC(/C=C/c4c(-c5ccccc5C(F)(F)F)noc4C4CC4)C3)cc12 [Example 186]
27,348 nM,O=C(O)c1cc(O[C@H]2C[C@@H](F)C2)c2cc(N3CC(/C=C/c4c(-c5ccccc5C(F)(F)F)noc4C4CC4)C3)ccc2n1 [Example 187]
28,376 nM,Cn1cc(C(=O)O)c(=O)c2ccc(N3CC4C(/C=C/c5c(-c6ccccc6C(F)(F)F)noc5C5CC5)C4C3)cc21 (stereo not drawn) [Example 190]
29,132 nM,CCn1cc(C(=O)O)c(=O)c2ccc(N3CC4C(/C=C/c5c(-c6ccccc6C(F)(F)F)noc5C5CC5)C4C3)cc21 (stereo not drawn) [Example 192]
30,343 nM,O=C(O)c1cc(O[C@H]2CCOC2)c2cc(N3CC(/C=C/c4c(-c5ccccc5C(F)(F)F)noc4C4CC4)C3)ccc2n1 [Example 193]

# Same assay, conditions: HLE GAL-FXR EC50, Gal4-hFXR fusion reporter, HEK293 cells
row,pEC50,Compound
1,5.89,"O=C(O)c1cccc(-c2noc(N3CC4C(/C=C/c5c(-c6c(Cl)cncc6Cl)noc5C5CC5)C4C3)n2)c1 (stereo not drawn) [Example 133, (E)-3-(5-(6-(2-(5-cyclopropyl-3-(3,5-dichloropyridin-4-yl)isoxazol-4-yl)vinyl)-3-azabicyclo[3.1.0]hexan-3-yl)-1,2,4-oxadiazol-3-yl)benzoic acid]"
2,6.04,"NC(=O)c1cc(OC2CC2)c2cc(N3CC4C(/C=C/c5c(-c6ccccc6C(F)(F)F)noc5C5CC5)C4C3)ccc2n1 (stereo not drawn) [Example 183, (E)-4-Cyclopropoxy-6-(6-(2-(5-cyclopropyl-3-(2-(trifluoromethyl)phenyl)-isoxazol-4-yl)vinyl)-3-azabicyclo[3.1.0]hexan-3-yl)quinoline-2-carboxamide]"
3,7.30,"O=C(O)c1cc(OC2CC2)c2cc(N3CC4C(/C=C/c5c(-c6ccccc6C(F)(F)F)noc5C5CC5)C4C3)ccc2n1 (stereo not drawn) [Example 184, (E)-4-Cyclopropoxy-6-(6-(2-(5-cyclopropyl-3-(2-(trifluoromethyl)phenyl)-isoxazol-4-yl)vinyl)-3-azabicyclo[3.1.0]hexan-3-yl)quinoline-2-carboxylic acid]"

# Same assay, conditions: read-out: FXR EC50; Gal4-hFXR fusion reporter, HEK293 cells; Table 1
row,pEC50,Compound
1,6.65,COc1cc(C(=O)O)cc(-c2nc(N3CC4C(/C=C/c5c(-c6c(Cl)cncc6Cl)noc5C5CC5)C4C3)no2)c1 (stereo not drawn) [Example 165]
2,7.19,COCc1cc(C(=O)O)nc2ccc(N3CC(/C=C/c4c(-c5cccnc5C(F)(F)F)noc4C4CC4)C3)cc12 [Example 171]

# Source: patent US11168079B2, “Alkene compounds as farnesoid x receptor modulators” (BRISTOL-MYERS SQUIBB COMPANY, priority 2017, dated 2021)
